{"source": "patent US20200352914A1", "about": "“METHODS OF TREATING HYPERTENSION WITH ACTIVATORS OF TIE-2” (Aerpio Pharmaceuticals, Inc., priority 2019, published 2020)", "key": {"human endothelial cells": {"test_system": "human endothelial cells", "test": "NO assay (nitrite in supernatant) in human endothelial cells", "type": "cell-based", "settings": "0.3-30 μmol/L, 30 minutes", "experimental": "Confluent human endothelial cell monolayers were cultured overnight in MCDB131 containing 0.1% BSA and sepiapterin (10 μmol/L). The monolayers were then incubated with increasing concentrations of Compound 2 (0.3-30 μmol/L) or solvent (DMSO) for 30 minutes. In separate experiments, cells treated with a control siRNA or siRNA directed against ABL1 were cultured in MCDB131 containing 0.1% BSA and sepiapterin (10 μmol/L), and then treated with Compound 2 (30 μmol/L) or solvent (DMSO) for 30 minutes before the addition of Yoda1 (1 μmol/L) for an additional 30 minutes. HEK293 cells co-transfected with wild-type eNOS and wild-type ABL1, DN ABL1, or GFP (as a control) were cultured overnight in minimal essential medium containing 0.5% heat-inactivated FCS and sepiapterin (10 μmol/L). Aliquots of the culture media were collected before and after each treatment. Potential cell debris was removed by centrifugation of the media at 1000 rpm for 5 minutes. NO release was assessed by determining the amount of nitrite in the cell supernatants using a Nitric Oxide Analyzer after reaction with iodide and acetic acid under nitrogen at room temperature.\nTo investigate the role of VE-PTP on the regulation of eNOS, human endothelial cells were treated with increasing concentrations of Compound 2 (for 30 minutes) and the generation of NO was assessed using a NO analyzer."}, "Sprague-Dawley rats": {"test_system": "Sprague-Dawley rats", "test": "MCT lung injury rat model of pulmonary hypertension (TABLE 30)", "type": "in vivo", "settings": "subset (n=3) of the monocrotaline group; s.c. injection at day 21", "experimental": "The MCT lung injury rat model was used to assess the effects of a Tie-2 activator disclosed herein, Compound 2, as a vasodilator of the pulmonary vasculature. At day 0, rats were treated with a single dose of 60 mg/kg monocrotaline (N=5) and compared to control rats (N=5), which were treated with vehicle. Animals from both groups underwent normal rodent care until day 21. At day 21, rats underwent simultaneous cannulation of the carotid and pulmonary artery/right ventricle. Arterial pressure was measured before and after subcutaneous injection of vehicle. Following the washout period of time, rats underwent the same measurements before and after subcutaneous injection of Compound 2. Hemodynamic endpoints included systemic pressure (via carotid catheterization) and pulmonary vascular pressure (right ventricular systolic pressure) vs. true pulmonary arterial pressure.\nFIG. 31 panel A illustrates the effects of Compound 2 on mean arterial blood pressure (ABP), heart rate, and right ventricular pressure. Each time point represents a beat-to-beat analysis for each variable over a 2-min period, which were then averaged. […] All animals received Compound 2 at time=0 min.\nAfter obtaining hemodynamic data, the rats were euthanized to assess the extent of RV hypertrophy, a marker of PH. […] RV hypertrophy was calculated based on the Fulton index using the following weight ratio: (RV/(LV+S))."}}, "data": [{"compound": "CCc1nc([C@H](Cc2ccc(NS(=O)(=O)O)cc2)NC(=O)[C@H](Cc2ccccc2)NC(=O)OC)cs1", "note": "[Compound 2]", "values": [{"measurement": "basal NO production (nitrite in supernatant)", "setting": "human endothelial cells", "result": "enhanced basal NO production"}, {"measurement": "right ventricular pressure", "setting": "Sprague-Dawley rats", "result": "significant drop in right ventricular pressure"}]}]}
